{"source": "patent US9910020B1", "about": "“Methods and articles for identifying objects using encapsulated perfluorocarbon tracers” (Copilot Ventures Fund III LLC, priority 2005, dated 2018)", "origin": "cited, not measured here", "key": {"cytochrome P-450": {"tested_on": "cytochrome P-450", "conditions": "PFD given to rats; hepatic metabolizing enzymes"}, "[1]": {"tested_on": "cytochrome P-450 IIA1 (a.k.a. cytochrome P450b)", "conditions": "following PFD treatment, rats; as with phenobarbital induction"}, "[2]": {"tested_on": "cytochrome P-450 IIA2 (a.k.a. cytochrome P450e)", "conditions": "following PFD treatment, rats; as with phenobarbital induction"}, "[3]": {"tested_on": "benzphetamine-N-demethylase", "conditions": "following PFD treatment, rats"}, "aldrin-epoxidase": {"tested_on": "aldrin-epoxidase", "conditions": "following PFD treatment, rats"}, "[4]": {"tested_on": "cytochrome P-450 IA1 and IA1", "conditions": "following PFD treatment, rats; induced by 3-methylcholanthrene-type inducers"}, "cytochrome P450 IV": {"tested_on": "cytochrome P450 IV", "conditions": "following PFD treatment, rats; induced by fatty acids and perfluoronated fatty acids"}}}
{"smiles": "FC1(F)C(F)(F)C(F)(F)C2(F)C(F)(F)C(F)(F)C(F)(F)C(F)(F)C2(F)C1(F)F", "note": "(stereo not shown) [PFD, perfluorodecalin]", "values": [{"measurement": "induction of cytochrome P-450", "setting": "cytochrome P-450", "value": "induce cytochrome P-450 in a manner similar to phenobarbital"}, {"measurement": "activity of cytochrome P-450 IIA1, increase", "setting": "[1]", "value": "approximately two-fold"}, {"measurement": "activity of cytochrome P-450 IIA2, increase", "setting": "[2]", "value": "approximately two-fold"}, {"measurement": "activity of benzphetamine-N-demethylase", "setting": "[3]", "value": "increased"}, {"measurement": "activity of aldrin-epoxidase", "setting": "aldrin-epoxidase", "value": "increased"}, {"measurement": "activities of cytochrome P-450 IA1 and IA1", "setting": "[4]", "value": "unaffected"}, {"measurement": "activity of cytochrome P450 IV", "setting": "cytochrome P450 IV", "value": "unaffected"}]}
